Measured values as given in patent US20250381412A1, “METHODS AND SYSTEMS FOR NEUROMODULATION” (Cardionomix, Inc., priority 2022, published 2025).

Test system: normal, non-HF ovine model
Test: Heartbeat-by-heartbeat changes in right and left ventricle contractility (max dP/dt as surrogate) after an injection
Type: in vivo
Details: pressure max (dP/dt) used as surrogate for contractility, after injection (calcium: 5 mL)
Text: The correlation was a heartbeat-by-heartbeat analysis. Pressure measurements, taken by a Millar catheter comprising a MEMS pressure sensor, in units of max (dP/dt) was used as a surrogate for contractility.
The first change, a dobutamine injection, provided a very high contractility increase greater than 500%. The average correlation between right ventricle contractility and left ventricle contractility was very good at 0.91, where 1.00 is a perfect correlation. Accordingly, if a subject is given a dobutamine injection, measuring changes to right ventricle contractility can provide accurate information about changes to left ventricle contractility. The first change was repeated three times.
The second change, calcium injection at 5 mL, provided a contractility increase of about 20%. […] The average correlation between right […] contractility and left ventricle contractility using a Millar (MEMS) sensor on a catheter was very good at 0.91. The average correlation between right ventricle contractility and left ventricle contractility using a fluid-filled lumen of a Swan-Ganz catheter in communication with an external pressure sensor was also very good at 0.87. Accordingly, under certain circumstances such as measurement of an animal (normal, non-HF ovine model) model, if a subject is given a calcium injection, measuring changes to right ventricle contractility with a MEMS sensor or a fluid filled lumen can provide accurate information about changes to left ventricle contractility.

| SMILES | Contractility % Increase [%] | Contractility % Increase (listed as calcium) | Contractility % Increase (listed as dobutamine) |
| --- | --- | --- | --- |
| [Ca+2] [Calcium, calcium] | ~20 | about 20% | – |
| CC(CCc1ccc(O)cc1)NCCc1ccc(O)c(O)c1 (stereo not shown) [Dobutamine Injection, dobutamine] | >500 | – | greater than 500% |
